In patent publication US11384078B2, “5,6-fused-bicyclic compounds and compositions for the treatment of parasitic diseases” (NOVARTIS AG, priority 2017, dated 2022):

Columns and labels:
Format in all cases: cell-based
[1] = system: Leishmania donovani axenic amastigote; experiment: In vitro assay for growth inhibition of Leishmania donovani axenic amastigote (Cell TiterGlo luminescence); conditions: Leishmania donovani, L. donovani axenic amastigotes in vitro; read-out: L. donovani amastigotes EC50
In short: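 Compound-treated wells received 9600 axenic amastigotes in RPMI 1640-based medium at pH 5.5 (37 °C, 5% CO2). Growth measured as ATP luminescence (CellTiter-Glo) after 2-day incubation; DMSO and reference compounds served as controls.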

[2] = system: L. donovani HU3 strain in mouse peritoneal macrophages; experiment: Assay for inhibition of parasitemia of Leishmania donovani in mouse macrophages (SYBR Green nuclei count, high-content imaging); conditions: Leishmania donovani, Peritoneal macrophage, L. donovani in mouse peritoneal macrophages; read-out: L. donovani in Mouse Macrophages EC50
In short: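 Parasite numbers were counted from SYBR Green-stained nuclei imaged by high-content microscopy after paraformaldehyde fixation and Triton permeabilization. Before this, compound was applied for 5 days at 37° C to BALB/c peritoneal macrophages (2×10^4/well) that had been exposed 24 h to 4×10^5 L. donovani HU3 amastigotes harvested from infected mouse spleens.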

[3] = system: Trypanosoma cruzi amastigotes cultured in 3T3 fibroblast cells; experiment: Assay for growth inhibition of kinetoplastid parasite Trypanosoma cruzi (beta-galactosidase Tulahuen strain, CPRG readout); conditions: Trypanosoma cruzi, Fibroblast, T. cruzi amastigotes in 3T3 fibroblast cells; read-out: Buckner infectious T. cruzi EC50
In short: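 3T3 fibroblasts (1,000 cells/well) plated overnight, treated with compound in DMSO, then infected with 10,000 Lac-Z-expressing Tulahuen trypomastigotes. After 6 days, 0.6 mM CPRG with 0.6% NP-40 added for 2 h at room temperature; absorbance gives relative intracellular amastigote numbers. Benznidazole and nifurtimox serve as positive controls.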

[4] = system: Trypanosoma brucei brucei (Lister 427) strain; experiment: Assay for growth inhibition against Trypanosoma brucei brucei (Cell TiterGlo ATP luminescence); conditions: Trypanosoma brucei, T. brucei brucei (Lister 427); read-out: T. Brucei (HAT) EC50
In short: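 Growth read-out is cellular ATP by CellTiter-Glo luminescence, measured 30 min after reagent addition, following 2-day incubation at 37 °C in CO2. Parasites (10,000/mL, HMI-9 plus 10% FBS and 10% serum plus) faced 10 threefold dilutions in duplicate; IC50 taken as 50% growth inhibition versus untreated.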

## O=C(Nc1ccc(F)c(-n2cc3cc(N4CC(F)(F)C4)cnc3n2)c1)N1CC[C@@H](F)C1 [Compound 300, (3R)-N-{3-[5-(3,3-difluoroazetidin-1-yl)-2H-pyrazolo[3,4-b]pyridin-2-yl]-4-fluorophenyl}-3-fluoropyrrolidine-1-carboxamide]
[1]
  EC50: 22 nM
[2]
  EC50: 6 nM
[3]
  EC50: 4 nM
[4]
  EC50: 3 nM

## Cn1cnc(-c2cnc3nn(-c4cc(NC(=O)N5CC(F)C5)ccc4F)cc3c2)c1 [Compound 301, 3-fluoro-N-{4-fluoro-3-[5-(1-methyl-1H-imidazol-4-yl)-2H-pyrazolo[3,4-b]pyridin-2-yl]phenyl}azetidine-1-carboxamide]
[1]
  EC50: 73 nM
[2]
  EC50: 97 nM
[3]
  EC50: 472 nM
[4]
  EC50: 8 nM

## O=C(Nc1ccc(F)c(-n2cc3cc(N4CC(F)C4)cnc3n2)c1)N1CC[C@@H](F)C1 [Compound 302, (3R)-3-fluoro-N-{4-fluoro-3-[5-(3-fluoroazetidin-1-yl)-2H-pyrazolo[3,4-b]pyridin-2-yl]phenyl}pyrrolidine-1-carboxamide]
[1]
  EC50: 118 nM
[2]
  EC50: 15 nM
[3]
  EC50: 2 nM
[4]
  EC50: 5 nM

## O=C(Nc1ccc(F)c(-n2cc3cc(N4CC(F)C4)cnc3n2)c1)N1CC(F)(F)C1 [Compound 303, 3,3-difluoro-N-{4-fluoro-3-[5-(3-fluoroazetidin-1-yl)-2H-pyrazolo[3,4-b]pyridin-2-yl]phenyl}azetidine-1-carboxamide]
[1]
  EC50: 490 nM
[2]
  EC50: 15 nM
[3]
  EC50: 10 nM
[4]
  EC50: 5 nM

## Cn1cc(-c2cnc3nn(-c4cc(NC(=O)N5CC(F)C5)ccc4F)cc3c2)cn1 [Compound 304, 3-fluoro-N-{4-fluoro-3-[5-(1-methyl-1H-pyrazol-4-yl)-2H-pyrazolo[3,4-b]pyridin-2-yl]phenyl}azetidine-1-carboxamide]
[1]
  EC50: 4 nM
[2]
  EC50: 3 nM
[3]
  EC50: 30 nM
[4]
  EC50: 5 nM

## O=C(Nc1ccc(F)c(-n2cc3cc(C4CCN(Cc5ccc(F)cc5)CC4)cnc3n2)c1)N1CC(F)C1 [Compound 305, 3-fluoro-N-[4-fluoro-3-(5-{1-[(4-fluorophenyl)methyl]piperidin-4-yl]-2H-pyrazolo[3,4-b]pyridin-2-yl)phenyl]azetidine-1-carboxamide]
[1]
  EC50: 110 nM
[2]
  EC50: 3 nM
[3]
  EC50: 1 nM
[4]
  EC50: 5 nM

## [2H]C([2H])([2H])N(c1cnc2nn(-c3cc(NC(=O)N4CCC4)ccc3F)cc2c1)C([2H])([2H])[2H] [Compound 306, N-(3-{5-[bis(^2H3)methylamino]-2H-pyrazolo[3,4-b]pyridin-2-yl}-4-fluorophenyl)azetidine-1-carboxamide]
[1]
  EC50: 90 nM
[2]
  EC50: 4 nM
[3]
  EC50: 2 nM
[4]
  EC50: 5 nM

## [2H]C([2H])([2H])N(c1cnc2nn(-c3cc(NC(=O)N4CC(F)(F)C4)ccc3F)cc2c1)C([2H])([2H])[2H] [Compound 307, N-(3-{5-[bis(^2H3)methylamino]-2H-pyrazolo[3,4-b]pyridin-2-yl}-4-fluorophenyl)-3,3-difluoroazetidine-1-carboxamide]
[1]
  EC50: 281 nM
[2]
  EC50: 12 nM
[3]
  EC50: 16 nM
[4]
  EC50: 5 nM

## [2H]C([2H])([2H])N(c1cnc2nn(-c3cc(NC(=O)N4CC[C@@H](F)C4)ccc3F)cc2c1)C([2H])([2H])[2H] [Compound 308, (3R)-N-(3-{5-[bis(^2H3)methylamino]-2H-pyrazolo[3,4-b]pyridin-2-yl}-4-fluorophenyl)-3-fluoropyrrolidine-1-carboxamide]
[1]
  EC50: 568 nM
[2]
  EC50: 2 nM
[3]
  EC50: 4 nM
[4]
  EC50: 5 nM

## O=C(Nc1ccc(F)c(-n2cc3cc(-c4ncccc4F)cnc3n2)c1)N1CC(F)(F)C1 [Compound 309, 3,3-difluoro-N-{4-fluoro-3-[5-(3-fluoropyridin-2-yl)-2H-pyrazolo[3,4-b]pyridin-2-yl]phenyl}azetidine-1-carboxamide]
[1]
  EC50: 1 nM
[2]
  EC50: 2 nM
[3]
  EC50: 1 nM
[4]
  EC50: 5 nM

## O=C(Nc1ccc(F)c(-n2cc3cc(-c4ncccc4Cl)cnc3n2)c1)N1CC(F)(F)C1 [Compound 310, N-{3-[5-(3-chloropyridin-2-yl)-2H-pyrazolo[3,4-b]pyridin-2-yl]-4-fluorophenyl}-3,3-difluoroazetidine-1-carboxamide]
[1]
  EC50: 2 nM
[2]
  EC50: 2 nM
[3]
  EC50: 1 nM
[4]
  EC50: 5 nM

## O=C(Nc1ccc(F)c(-n2cc3cccnc3n2)c1)N1CC(F)C1 [Compound 311, 3-fluoro-N-(4-fluoro-3-(2H-pyrazolo[3,4-b]pyridin-2-yl)phenyl)azetidine-1-carboxamide]
[1]
  EC50: 58 nM
[2]
  EC50: 33 nM
[3]
  EC50: 31 nM
[4]
  EC50: 27 nM

## Cc1nccnc1-c1cnc2nn(-c3cc(NC(=O)N4CC(F)C4)ccc3F)cc2c1 [Compound 312, 3-fluoro-N-{4-fluoro-3-[5-(3-methylpyrazin-2-yl)-2H-pyrazolo[3,4-b]pyridin-2-yl]phenyl}azetidine-1-carboxamide]
[1]
  EC50: 3 nM
[2]
  EC50: 2 nM
[3]
  EC50: 4 nM
[4]
  EC50: 33 nM

## O=C(Nc1ccc(F)c(-n2cc3cc(-c4ncccc4F)cnc3n2)c1)N1CCC1 [Compound 313, N-{4-fluoro-3-[5-(3-fluoropyridin-2-yl)-2H-pyrazolo[3,4-b]pyridin-2-yl]phenyl}azetidine-1-carboxamide]
[1]
  EC50: 1 nM
[2]
  EC50: 2 nM
[3]
  EC50: 1 nM
[4]
  EC50: 5 nM

## O=C(Nc1ccc(F)c(-n2cc3cc(-c4ncccc4Cl)cnc3n2)c1)N1CCC1 [Compound 315, N-{3-[5-(3-chloropyridin-2-yl)-2H-pyrazolo[3,4-b]pyridin-2-yl]-4-fluorophenyl}azetidine-1-carboxamide]
[1]
  EC50: 2 nM
[2]
  EC50: 2 nM
[3]
  EC50: 1 nM
[4]
  EC50: 5 nM

## O=C(Nc1ccc(F)c(-n2cc3cc(-c4ncccc4Cl)cnc3n2)c1)N1CC[C@@H](F)C1 [Compound 316, (3R)-N-{3-[5-(3-chloropyridin-2-yl)-2H-pyrazolo[3,4-b]pyridin-2-yl]-4-fluorophenyl}-3-fluoropyrrolidine-1-carboxamide]
[1]
  EC50: 2 nM
[2]
  EC50: 2 nM
[3]
  EC50: 1 nM
[4]
  EC50: 5 nM

## O=C(Nc1ccc(F)c(-n2cc3cc(-c4ncccc4F)cnc3n2)c1)N1CC[C@@H](F)C1 [Compound 317, (3R)-3-fluoro-N-{4-fluoro-3-[5-(3-fluoropyridin-2-yl)-2H-pyrazolo[3,4-b]pyridin-2-yl]phenyl}pyrrolidine-1-carboxamide]
[1]
  EC50: 2 nM
[2]
  EC50: 2 nM
[3]
  EC50: 1 nM
[4]
  EC50: 5 nM

## Cc1cnc2nn(-c3cc(NC(=O)N4CC(F)C4)ccc3F)cc2c1 [Compound 318, 3-fluoro-N-(4-fluoro-3-{5-methyl-2H-pyrazolo[3,4-b]pyridin-2-yl}phenyl)azetidine-1-carboxamide]
[1]
  EC50: 27 nM
[2]
  EC50: 32 nM
[3]
  EC50: 13 nM
[4]
  EC50: 15 nM

## O=C(Nc1ccc(F)c(-n2cc3cc(-n4ccnc4)cnc3n2)c1)N1CC(F)C1 [Compound 323, 3-fluoro-N-{4-fluoro-3-[5-(1H-imidazol-1-yl)-2H-pyrazolo[3,4-b]pyridin-2-yl]phenyl}azetidine-1-carboxamide]
[1]
  EC50: 12 nM
[2]
  EC50: 113 nM
[3]
  EC50: 62 nM
[4]
  EC50: 15 nM

## O=C(Nc1ccc(F)c(-n2cc3cc(C(F)(F)F)cnc3n2)c1)N1CC(F)(F)C1 [Compound 324, 3,3-difluoro-N-{4-fluoro-3-[5-(trifluoromethyl)-2H-pyrazolo[3,4-b]pyridin-2-yl]phenyl}azetidine-1-carboxamide]
[1]
  EC50: 15 nM
[2]
  EC50: 45 nM
[3]
  EC50: 16 nM
[4]
  EC50: 37 nM

## O=C(Nc1ccc(F)c(-n2cc3cc(-c4cnn(C5CC5)c4)cnc3n2)c1)N1CC(F)C1 [Compound 325, N-{3-[5-(1-cyclopropyl-1H-pyrazol-4-yl)-2H-pyrazolo[3,4-b]pyridin-2-yl]-4-fluorophenyl}-3-fluoroazetidine-1-carboxamide]
[1]
  EC50: 8 nM
[2]
  EC50: 50 nM
[3]
  EC50: 36 nM
[4]
  EC50: 11 nM

## O=C(Nc1ccc(F)c(-n2cc3cc(N4CC(F)(F)C4)cnc3n2)c1)C1CC1 [Compound 326, N-{3-[5-(3,3-difluoroazetidin-1-yl)-2H-pyrazolo[3,4-b]pyridin-2-yl]-4-fluorophenyl}cyclopropanecarboxamide]
[1]
  EC50: 189 nM
[2]
  EC50: 761 nM
[3]
  EC50: 119 nM
[4]
  EC50: 236 nM

## O=C(Nc1ccc(F)c(-n2cc3cc(N4CC(F)C4)cnc3n2)c1)C1CC1 [Compound 327, N-{4-fluoro-3-[5-(3-fluoroazetidin-1-yl)-2H-pyrazolo[3,4-b]pyridin-2-yl]phenyl}cyclopropanecarboxamide]
[1]
  EC50: 351 nM
[2]
  EC50: 1200 nM
[3]
  EC50: 149 nM
[4]
  EC50: 232 nM
